pIC50: −log10 of the molar value.
Assays:
Homo sapiens = organism: Homo sapiens; assay: Selectivity ratio of IC50 for human CTPS2 to IC50 for human CTPS1 by RapidFire/MS analysis
CTP synthase 1 = molecular target: T1, CTP synthase 1 (Homo sapiens, UniProt P17812); assay: Inhibition of C-terminal FLAG-His8-tagged full length human CTPS1 preincubated for 10 mins followed by substrate addition by ADP-Glo assay
T1 sequence (P17812 whole entry): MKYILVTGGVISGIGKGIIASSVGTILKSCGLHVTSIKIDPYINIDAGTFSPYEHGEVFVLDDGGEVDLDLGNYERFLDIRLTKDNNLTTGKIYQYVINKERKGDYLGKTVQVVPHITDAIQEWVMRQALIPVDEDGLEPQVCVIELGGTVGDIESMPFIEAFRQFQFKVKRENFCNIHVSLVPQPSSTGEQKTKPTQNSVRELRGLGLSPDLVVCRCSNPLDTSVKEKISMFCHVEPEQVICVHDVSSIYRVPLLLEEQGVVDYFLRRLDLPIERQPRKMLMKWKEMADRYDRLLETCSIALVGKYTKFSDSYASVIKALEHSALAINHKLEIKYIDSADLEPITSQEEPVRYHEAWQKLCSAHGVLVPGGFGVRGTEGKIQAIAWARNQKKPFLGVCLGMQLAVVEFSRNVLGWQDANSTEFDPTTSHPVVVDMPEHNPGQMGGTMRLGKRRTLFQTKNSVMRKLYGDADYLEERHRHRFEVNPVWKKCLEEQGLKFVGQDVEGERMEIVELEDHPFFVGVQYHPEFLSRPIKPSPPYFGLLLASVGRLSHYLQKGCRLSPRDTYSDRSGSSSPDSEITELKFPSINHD

Ratio IC50 (Homo sapiens)	pIC50 (CTP synthase 1)	SMILES
> 60	≥ 7.00	CCOc1cncc(-c2ccc(NC(=O)C(CC)c3cncc(NS(=O)(=O)C4CC4)n3)cc2)n1 (stereo not given)
> 60	≥ 7.00	CC(C)Oc1cncc(-c2ccc(NC(=O)C(C)(C)c3ccnc(NS(=O)(=O)C4CC4)n3)nc2)n1
30	≥ 7.00	CCOc1cncc(-c2ccc(NC(=O)C(CC)c3ccnc(NS(=O)(=O)C4CC4)n3)cc2)n1 (stereo not given)
30	≥ 7.00	CC(C)Oc1cncc(-c2ccc(NC(=O)Cc3ccnc(NS(=O)(=O)C4CC4)n3)cc2)n1
> 60	≥ 7.00	CCOc1cncc(-c2ccc(NC(=O)C3(c4ccnc(NS(=O)(=O)CC#N)n4)CCOCC3)nc2)n1
2	≥ 7.00	CCOc1cncc(-c2ccc(NC(=O)C(C)(C)c3ccnc(NS(=O)(=O)C4CC4)n3)c(C#N)c2)n1
30	≥ 7.00	CCOc1cncc(-c2ccc(NC(=O)C(CCOC)c3ccnc(NS(=O)(=O)C4CC4)n3)cc2)n1 (stereo not given)
> 60	≥ 7.00	CCC(C(=O)Nc1ccc(-c2cncc(OC(C)C)n2)cn1)c1ccnc(NS(=O)(=O)C2CC2)n1 (stereo not given)
2	≥ 7.00	CCC(C(=O)Nc1ccc(-c2cncc(OC)n2)cc1F)c1ccnc(NS(=O)(=O)C2CC2)n1 (stereo not given)
30	≥ 7.00	CCC(C(=O)Nc1ccc(-c2cncc(C(F)(F)F)n2)cn1)c1ccnc(NS(=O)(=O)C2CC2)n1 (stereo not given)
> 60	≥ 7.00	CCOc1cncc(-c2ccc(NC(=O)C3(c4ccnc(NS(=O)(=O)C5CC5)n4)CCC(F)(F)CC3)nc2)n1
2	≥ 7.00	CCOc1cncc(-c2ccc(NC(=O)C(CC)c3ccnc(NS(=O)(=O)C4CC4)n3)c(C)c2)n1 (stereo not given)
> 60	≥ 7.00	CCOc1cncc(-c2ccc(NC(=O)C3(c4ccnc(NS(=O)(=O)C5CC5)n4)CCC4(CC3)OCCO4)nc2)n1
> 60	≥ 7.00	CCOc1cncc(-c2ccc(NC(=O)C(C)(CCOC)c3cncc(NS(=O)(=O)C4CC4)n3)nc2)n1 (stereo not given)
> 60	≥ 7.00	CCOc1cncc(-c2ccc(NC(=O)C3(c4ccnc(NS(=O)(=O)C5CC5)n4)CCOCC3)nc2)n1
30	≥ 7.00	CCOc1cncc(-c2ccc(NC(=O)C(CC)c3cccc(NS(=O)(=O)C4CC4)n3)nc2)n1 (stereo not given)
2	≥ 7.00	CCOc1cncc(-c2cnc(NC(=O)C(CC)c3ccnc(NS(=O)(=O)C4CC4)n3)c(C)c2)n1 (stereo not given)
2	≥ 7.00	CCOc1cncc(-c2ccc(NC(=O)C(CC)c3ccnc(NS(=O)(=O)C4CC4)n3)c(F)c2)n1 (stereo not given)
> 60	≥ 7.00	CCOc1cncc(-c2ccc(NC(=O)C(CC)c3cncc(NS(=O)(=O)C4CC4)n3)nc2)n1 (stereo not given)
> 60	≥ 7.00	CCOc1cncc(-c2ccc(NC(=O)C(CCOC)c3ccnc(NS(=O)(=O)C4CC4)n3)c(F)c2)n1 (stereo not given)
2	≥ 7.00	CCOc1cncc(-c2ccc(NC(=O)C(C)(C)c3ccnc(NS(=O)(=O)C4CC4)n3)cc2)n1
> 60	≥ 7.00	CCOc1cncc(-c2ccc(NC(=O)C(CCOC)c3ccnc(NS(=O)(=O)C4CC4)n3)nc2)n1 (stereo not given)
2	≥ 7.00	CC(C)Oc1cncc(-c2ccc(NC(=O)C(C)(C)c3ccnc(NS(=O)(=O)C4CC4)n3)c(F)c2)n1
30	≥ 7.00	CCOc1cncc(-c2ccc(NC(=O)Cc3ccnc(NS(=O)(=O)C4CC4)n3)cc2)n1
> 60	≥ 7.00	CCOc1cncc(-c2ccc(NC(=O)C3(c4cncc(NS(=O)(=O)C5CC5)n4)CCOCC3)nc2)n1
> 60	≥ 7.00	CCOc1cncc(-c2ccc(NC(=O)C3(c4ccnc(NS(=O)(=O)C5CC5)n4)CCCC3)cc2)n1
30	≥ 7.00	CC(C)Oc1cncc(-c2ccc(NC(=O)Cc3ccnc(NS(=O)(=O)C4CC4)n3)c(F)c2)n1

Ratio IC50 (Homo sapiens)	pIC50 (CTP synthase 1)	SMILES
> 60	≥ 7.00	CCC(C(=O)Nc1ccc(-c2cncc(OCC(F)(F)F)n2)cc1F)c1ccnc(NS(=O)(=O)C2CC2)n1 (stereo not given)
2	–	CC(C)(NC(=O)c1ccc(-c2cncc(C(F)(F)F)n2)cc1)c1cncc(NS(=O)(=O)C2CC2)n1
30	≥ 7.00	CCOc1cncc(-c2cnc(NC(=O)C(CC)c3ccnc(NS(=O)(=O)C4CC4)n3)c(F)c2)n1 (stereo not given)
> 60	≥ 7.00	CCOc1cncc(-c2ccc(NC(=O)C(C)(C)c3ccnc(NS(=O)(=O)C4CC4)n3)nc2)n1
> 60	≥ 7.00	CCOc1cncc(-c2ccc(NC(=O)C(CC)c3ccnc(NS(=O)(=O)C4CC4)n3)nc2)n1 (stereo not given)
> 60	–	CCOc1cncc(-c2ccc(NC(=O)C3(c4ccnc(NS(=O)(=O)C5CC5)n4)CCC(N(C)C)CC3)nc2)n1 (stereo in doubt; form 1)
> 60	≥ 7.00	CCOc1cncc(-c2ccc(NC(=O)C3(c4ccnc(NS(=O)(=O)C5CC5)n4)CCC(=O)CC3)nc2)n1
> 60	≥ 7.00	CCOc1cncc(-c2ccc(NC(=O)C(C)(C)c3cncc(NS(=O)(=O)C4CC4)n3)cc2)n1
> 60	≥ 7.00	CCOc1cncc(-c2ccc(C(=O)NC(CC)c3ccnc(NS(=O)(=O)C4CC4)n3)c(F)c2)n1 (stereo not given)
2	–	CCC(C(=O)Nc1ncc(-c2cncc(OC)n2)cc1F)c1ccnc(NS(=O)(=O)C2CC2)n1 (stereo not given)
> 60	–	CCOc1cncc(-c2ccc(NC(=O)C(C)(OC)c3cncc(NS(=O)(=O)C4CC4)n3)nc2)n1 (stereo in doubt; form 1)
2	≥ 7.00	CCOc1cncc(-c2ccc(NC(=O)C(OC)c3ccnc(NS(=O)(=O)C4CC4)n3)cc2)n1 (stereo not given)
> 60	≥ 7.00	CCOc1cncc(-c2ccc(NC(=O)C(C)(C)c3cncc(NS(=O)(=O)C4CC4)n3)nc2)n1
> 60	≥ 7.00	CCC(C(=O)Nc1ccc(-c2cncc(OC)n2)cn1)c1ccnc(NS(=O)(=O)C2CC2)n1 (stereo not given)
> 60	≥ 7.00	CCOc1cncc(-c2ccc(NC(=O)C3(c4ccnc(NS(=O)(=O)C5CC5)n4)CCOCC3)c(F)c2)n1
2	≥ 7.00	CCOc1cncc(-c2ccc(NC(=O)C(C)(C)c3ccnc(NS(=O)(=O)C4CC4)n3)c(F)c2)n1
> 60	≥ 7.00	CCOc1cncc(-c2ccc(NC(=O)C(C)(CC)c3ccnc(NS(=O)(=O)C4CC4)n3)nc2)n1 (stereo not given)
> 60	≥ 7.00	CCOc1cncc(-c2ccc(C(=O)NCc3ccnc(NS(=O)(=O)C4CC4)n3)cc2)n1
2	–	CCOc1cncc(-c2ccc(NC(=O)C3(c4ccnc(NS(=O)(=O)C5CC5)n4)CCC(O)CC3)nc2)n1 (single isomer, unassigned)
30	–	CCOc1cncc(-c2ccc(NC(=O)C(C)(C)c3nc(NS(=O)(=O)C4CC4)ncc3F)cc2)n1
> 60	≥ 7.00	CCOc1cncc(-c2ccc(NC(=O)C3(c4ccnc(NS(=O)(=O)C5CC5)n4)CC3)cc2)n1
> 60	≥ 7.00	CCC(C(=O)Nc1ccc(-c2cncc(OCC(F)(F)F)n2)cc1)c1ccnc(NS(=O)(=O)C2CC2)n1 (stereo not given)
> 60	≥ 7.00	CCOc1cncc(-c2ccc(NC(=O)C(F)(CC)c3ccnc(NS(C)(=O)=O)n3)nc2)n1 (stereo not given)
> 60	≥ 7.00	CCOc1cncc(-c2ccc(NC(=O)C3(c4ccnc(NS(=O)(=O)C5CC5)n4)CCN(S(C)(=O)=O)CC3)nc2)n1
> 60	≥ 7.00	CCOc1cncc(-c2ccc(NC(=O)C3(c4ccnc(NS(=O)(=O)C5CC5)n4)CCCC3)nc2)n1
> 60	–	CCOc1cncc(-c2ccc(NC(=O)C(F)(CC)c3ccnc(NS(=O)(=O)C4CC4)n3)nc2)n1 (stereo in doubt; form 3)
30	–	CCOc1cncc(-c2ccc(NC(=O)C(F)(CC)c3cncc(NS(=O)(=O)C4CC4)n3)nc2)n1 (stereo in doubt; form 1)
